“Also recorded” adds a separate entry of the source.
Columns and labels:
[1] = system: LDLR (+) Human Fibroblasts; experiment: Total 125I-LDL binding to human fibroblasts; format: cell-based; conditions: for 125I-LDL BINDING: 10 ug/ml 125I-LDL, 4 h, 37° C., n = 3, untreated 49.7; for LDL-binding (in words): human fibroblasts / tissue cells
Method: Normal LDLR(+) human fibroblasts (GM3440) were obtained from the National Institute of General Medical Sciences Human Genetic Cell Repository. Stock fibroblast monolayers were maintained in T-75 disposable Nunc flasks, in a medium comprising 10 ml of MEM (Eagle's Minimum Essential Medium with Earl's salts, pH 7.4) supplemented with 10% (v/v) fetal bovine serum (FBS), 2% (v/v) non-essential and essential amino acids, 1% (v/v) MEM vitamins, 1% L-glutamine (292 ug/ml), 1% penicillin (100 U/ml)-streptomycin (100 ug/ml). The fibroblast stock was maintained at 37° C. in a humidified atmosphere of 5% CO2 and 95% air.
For experiments using fibroblasts, confluent stock cultures (5-18 passages) were washed once with Dulbecco's PBS (phosphate buffered saline) prior to the addition of 3 ml aliquots of experimental MEM containing 25% (v/v) D2 O, 9% (v/v) dilapidated FBS, 1% FBS (v/v), 1% MEM vitamins and L-glutamine, and 2% of essential and non-essential amino acids and 20 mM HEPES buffer.
(§1) The fibroblast and hepatoblastoma cells were cultured in media containing 25% D2 O and 1% FBS in order to determine de novo cholesterol synthesis under conditions that permit receptor mediated cholesterol transport, according to the method of Easterman & Javitt et al., J. Lipid Res., 26: 950-954 (1985). Dish cultures of each cell type were prepared, and 26-aminocholesterol, dissolved in N,N-dimethylformamide (DMF, 9 ul per dish, 0.3% v/v) was added to each culture. The cells were then grown to confluence (96 hours, day 5). […] Duplicate or triplicate dishes containing 9 ul of DMF, but without 26-aminocholesterol, were used as controls.
LDL (d, 1.019-1.03) was isolated by sequential preparative ultracentrifugation of normal human plasma, using solid KBr for density adjustment, according to the methods of Havel et al., J. Clin. Invest., 34: 1345-1353 (1955) and Radding & Steinberg, J Clin. Invest., 39: 1560-1569 (1960). The isolated LDL was then iodinated with ^125 INa by the monochloride procedure of McFarlane, Nature, 102: 53 (1958), as modified for lipoproteins according to Bilheimer et al., Biochim. Biophys. Acta. 260: 212-221 (1972). To remove free iodine, the LDL preparation was subjected to column chromatography on a Sephadex G-25M disposable mini-column (Pharmacia PD-10) and was dialized against 0.15 M NaCl and […] EDTA, pH 7.4. The specific activity of all LDL preparations ranged between 160-300 cpm/mg of LDL proteins. ^125 I-LDL was stored at 4° C. and was sterilized by filtration through a 0.45 um membrane just prior to incubation with the treated fibroblast and hepatoblastoma cell cultures and control cultures.
For binding studies, a fixed concentration of 10 ug/ml of ^125 I-LDL was added directly to the monolayers of the confluent culture medium (at or near the 96th hour) and incubation was continued for a further 4 hours at 37° C. for fibroblasts and 4° C. for HepG2 cells. After this incubation, the culture dishes were placed on ice, the medium was removed, and the cell monolayers were washed as described in Goldstein & Brown, J. Biol. Chem., 249: 5153-5162 (1974). The monolayers were then scraped off the dishes with a teflon policeman and were solubilized with 1 ml of 0.1 N NaOH.
Cell-associated radioactivity was measured in a Packard auto gamma scintillation spectrometer Model 5160, and cell protein was measured by the method of Lowry et al., J. Biol. Chem., 193: 265-275 (1951), using bovine serum albumin as a standard. Total ^125 I-LDL binding was expressed as the mass of ^125 I-LDL (mg) per mg of cell protein.
(§2) For purposes of comparison, ^125 I-LDL and cholesterol assays were also conducted in cultures prepared according to the above methods, but incubated with 26-hydroxycholesterol in one set of experiments and with the sterol 26-thiacholesterol in another set of experiments. These sterols were obtained according to known methods, similar to those described above for 26-aminocholesterol.

HepG2 Cells = experiment: Total cell cholesterol in HepG2 hepatocytes; format: cell-based, human; conditions: 96 h, n = 3
Description: HepG2 cells were obtained from Dr. Barbara Knowles of the Wistar Institute, Pennsylvania. The HepG2 stock monolayers were maintained under the same conditions as the fibroblast monolayers, in a medium comprising MEM supplemented with 10% heat-inactivated FBS, and 1% (v/v) each of penicillin-streptomycin solution, non-essential and essential amino acids, and L-glutamine.
For experiments using HepG2 cells, confluent stock monolayers were washed once with Dulbecco's PBS, dissociated with 0.05-0.02% trypsin-EDTA followed by treatment with deoxyribonuclease I (0.1%), and were seeded (3.0×10^6) under identical conditions. The experimental MEM contained 25% (v/v) D2 O, 9% (v/v) delipidated FBS, and 1% (v/v) each of heat-inactivated FBS, penicillin-streptomycin, essential and non-essential amino acids, L-glutamine and 20 mM HEPES.
as §1
After 96 hours of incubation, medium was removed from the cell cultures, and the cells were washed with Dulbecco's PBS and were harvested with 0.05% trypsin - 0.02% EDTA. The protease was deactivated with an equivolume aliquot of soybean trypsin inhibitor, and the resulting cell suspension was centrifuged for 5 minutes at 500xg. An internal standard of 5B-cholestan-3B-ol was added to the pellets prior to extraction with an 8:4:3 chloroform:methanol:water Folch mixture, as described in Folch et al., J. Biol. Chem., 266: 497-509 (1957). An aliquot of the extract was blown to dryness under nitrogen and silylated with 2:1:1 MSTFA (a sylated reagent supplied by Pierce Co.): toluene:-pyridine. Free cholesterol was determined by gas-liquid chromatography (GLC) on a Perkin-Elmer capillary gas-liquid chromatography model 8320 fitted with a 20 m DE-1 methylsilicon glass column (Supelco). The remaining extract was dried and saponified with 2% ethanolic KOH at 80° C. for one hour. The […] was then re-extracted and total cholesterol was measured by GLC after silylation. Cholesterol ester was calculated as the difference between the total and free cholesterol determinations. Newly synthesized cholesterol was determined by GLC-MS isotope mass ratios, using a Hewlett-Packard GC-MS spectrometer model 5890 fitted with DB-1 methyl silicon 0.18 i.d. 20 m glass column (Supelco), according to the method of J. Lipid. Res., 26: 950-954, supra.
as §2

Structure (SMILES)	125I-LDL BINDING ([1]; 0.625 uM, human fibroblasts)	LDL-binding (in words) [1]	TOTAL CHOLESTEROL (HepG2 Cells; 0.625 uM)	125I-LDL BINDING ([1]; 0.156 uM, human fibroblasts)	125I-LDL BINDING ([1]; 0.312 uM, human fibroblasts)	potency in comparison (in words) ([1]; human fibroblasts, versus 26-hydroxycholesterol)	TOTAL CHOLESTEROL (HepG2 Cells; 0.156 uM)	TOTAL CHOLESTEROL (HepG2 Cells; 0.312 uM)	125I-LDL BINDING ([1]; 5.0 uM, human fibroblasts)	125I-LDL BINDING ([1]; 10.0 uM, human fibroblasts)	125I-LDL BINDING ([1]; 20.0 uM, human fibroblasts)	TOTAL CHOLESTEROL (HepG2 Cells; 5.0 uM)	TOTAL CHOLESTEROL (HepG2 Cells; 10.0 uM)	TOTAL CHOLESTEROL (HepG2 Cells; 20.0 uM)
CC(CO)CCC[C@@H](C)[C@H]1CC[C@H]2[C@@H]3CC=C4C[C@@H](O)CC[C@]4(C)[C@H]3CC[C@]12C (stereo partly drawn) [26-OH, 26-hydroxycholesterol]	22.0 +/- 2.4 ug LDL protein per mg cell pro	significant reductions	24.7 +/- 2.8 ug cholesterol per mg cell pro											
C[C@@H](CN)CCC[C@@H](C)[C@H]1CC[C@H]2[C@@H]3CC=C4C[C@@H](O)CC[C@]4(C)[C@H]3CC[C@]12C [26-NH2, 26-aminocholesterol]	13.3 +/- 1.6 ug LDL protein per mg cell pro	significant reductions; also recorded: downregulates LDL binding; also recorded: selectively inhibits and reduces LDL binding	28.8 +/- 1.8 ug cholesterol per mg cell pro	29.6 +/- 1.1 ug LDL protein per mg cell pro	22.6 +/- 5.4 ug LDL protein per mg cell pro	significantly more potent	30.6 +/- 3.7 ug cholesterol per mg cell pro	25.0 +/- 0.6 ug cholesterol per mg cell pro						
CC(CS)CCC[C@@H](C)[C@H]1CC[C@H]2[C@@H]3CC=C4C[C@@H](O)CC[C@]4(C)[C@H]3CC[C@]12C (stereo partly drawn) [26-SH]		no impact							37.9 +/- 1.8 ug LDL protein per mg cell pro	25.7 +/- 0.7 ug LDL protein per mg cell pro	35.7 +/- 4.8 ug LDL protein per mg cell pro	25.5 +/- 4.3 ug cholesterol per mg cell pro	27.4 +/- 4.0 ug cholesterol per mg cell pro	23.2 +/- 1.2 ug cholesterol per mg cell pro
